Test results taken from patent US5238962A, “Benzamide derivatives” (Hoffmann-La Roche Inc., priority 1983, dated 1993).

Legend:
[1] = toxicity (LD50, p.o. in mice); conditions: mouse, in vivo, po
monoamine oxidase (MAO) = target: T1, monoamine oxidase (MAO) (Rattus norvegicus, UniProt P19643); experiment: MAO inhibiting activity in homogenates of brain and liver of rats after oral administration (phenethylamine as substrate); format: in vivo; conditions: 2 h, p.o. in rats, killed two hours after administration, homogenates of the brain and the liver, phenethylamine 2.10^-5 mol.1^-1 as substrate
T1 construct: from tissue; host or cells: rat brain and liver homogenates
T1 sequence (P19643 1-520): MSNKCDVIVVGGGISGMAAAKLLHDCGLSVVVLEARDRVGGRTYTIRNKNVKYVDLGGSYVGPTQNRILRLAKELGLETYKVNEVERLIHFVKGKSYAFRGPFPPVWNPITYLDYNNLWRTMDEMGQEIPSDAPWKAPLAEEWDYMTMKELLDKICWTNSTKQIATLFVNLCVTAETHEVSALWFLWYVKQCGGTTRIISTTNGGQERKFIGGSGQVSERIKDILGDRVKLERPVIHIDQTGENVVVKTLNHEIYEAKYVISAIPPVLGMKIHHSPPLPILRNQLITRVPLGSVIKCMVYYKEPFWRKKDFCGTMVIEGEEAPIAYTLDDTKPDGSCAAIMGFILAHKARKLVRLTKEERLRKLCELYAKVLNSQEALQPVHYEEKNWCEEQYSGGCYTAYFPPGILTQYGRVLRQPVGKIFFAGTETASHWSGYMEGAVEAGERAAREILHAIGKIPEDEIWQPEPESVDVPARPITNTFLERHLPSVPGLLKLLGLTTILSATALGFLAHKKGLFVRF
Procedure: The MAO inhibiting activity of the compounds of formula I and their pharmaceutically acceptable addition salts can be determined using standard methods. Thus, the substances to be tested were administered orally to rats. Two hours thereafter the animals were killed and the MAO inhibiting activity was measured in homogenates of the brain and the liver according to the method described in Biochem. Pharmacol. 12 (1963) 1439-1441, but using phenethylamine (2.10^-5 mol. 1^-1) in place of tyramine as the substrate.

SMILES: NCCNC(=O)c1ccc(Cl)cc1 [N-(2-Aminoethyl)-p-chlorobenzamide]
- LD50 [1]: 1000 to 2000 mg/kg

SMILES: NCCNC(=O)c1ccc(Cl)c(Cl)c1 [N-(2-Aminoethyl)-3,4-dichlorobenzamide, N-(2-aminoethyl)-3,4-dichlorobenzamide]
- LD50 [1]: 1000 to 2000 mg/kg
- ED50 (monoamine oxidase (MAO)): 10.3 µmol/kg

SMILES: NCCNC(=O)c1ccccc1 [N-(2-Aminoethyl)benzamide]
- LD50 [1]: > 5000 mg/kg
- ED50 (monoamine oxidase (MAO)): 20 µmol/kg

SMILES: NCCNC(=O)c1ccc(Cl)cc1Cl [N-(2-Aminoethyl)-2,4-dichlorobenzamide, N-(2-aminoethyl)-2,4-dichlorobenzamide]
- LD50 [1]: 625 to 1250 mg/kg
- ED50 (monoamine oxidase (MAO)): 1.5 µmol/kg

SMILES: NCCNC(=O)c1ccc(Br)cc1 [N-(2-Aminoethyl)-p-bromobenzamide]
- LD50 [1]: 500 to 1000 mg/kg
- ED50 (monoamine oxidase (MAO)): 4 µmol/kg

SMILES: NCCNC(=O)c1ccc(F)cc1 [N-(2-Aminoethyl)-p-fluorobenzamide]
- LD50 [1]: > 5000 mg/kg
- ED50 (monoamine oxidase (MAO)): 4 µmol/kg
